# According to the NIST ThermoML archive (doi:10.1021/je400536f):
# Numbers after ± are expanded uncertainties.
# Key:
# [1] = 298.15 K, 100 kPa, Liquid; for viscosity: Concentric cylinders viscometry; for mass density: Vibrating tube method
# [2] = mn = molality of the nth substance listed, in mol/kg; settings: 298.15 K, 100 kPa, Liquid, dip-type immersion conductivity cell
compound,measurement,setting,value
CNC=O [N-methylformamide],viscosity,[1],1.65 ± 0.07 mPa·s
same,mass density,[1],997.61 ± 5.4 kg/m3
NC=O [formamide],viscosity,[1],3.3 ± 0.1 mPa·s
same,mass density,[1],1129.22 ± 6.9 kg/m3
C[N+](=O)[O-] [nitromethane],viscosity,[1],0.62 ± 0.06 mPa·s
same,mass density,[1],1130.15 ± 6.9 kg/m3
CCCC[N+](CCCC)(CCCC)CCCC.[O-][Cl+3]([O-])([O-])[O-] [tetrabutylammonium perchlorate] + CNC=O,molar conductivity,[2]; m1 = 0.000795,0.00449 ± 0.00012 S·m2/mol
same,molar conductivity,[2]; m1 = 0.001513,0.00423 ± 0.00011 S·m2/mol
same,molar conductivity,[2]; m1 = 0.002025,0.00407 ± 9.9e-05 S·m2/mol
same,molar conductivity,[2]; m1 = 0.002735,0.00389 ± 9.6e-05 S·m2/mol
same,molar conductivity,[2]; m1 = 0.003295,0.00371 ± 9e-05 S·m2/mol
same,molar conductivity,[2]; m1 = 0.003956,0.00358 ± 8.1e-05 S·m2/mol
same,molar conductivity,[2]; m1 = 0.004802,0.00342 ± 7.7e-05 S·m2/mol
same,molar conductivity,[2]; m1 = 0.005388,0.00333 ± 7.4e-05 S·m2/mol
same,molar conductivity,[2]; m1 = 0.006053,0.00323 ± 7.3e-05 S·m2/mol
same,molar conductivity,[2]; m1 = 0.006823,0.00309 ± 7e-05 S·m2/mol
same,molar conductivity,[2]; m1 = 0.007832,0.00293 ± 6.6e-05 S·m2/mol
same,molar conductivity,[2]; m1 = 0.008798,0.00279 ± 6.2e-05 S·m2/mol
CCCC[N+](CCCC)(CCCC)CCCC.[O-][Cl+3]([O-])([O-])[O-] [tetrabutylammonium perchlorate] + C[N+](=O)[O-],molar conductivity,[2]; m1 = 0.000864,0.0101 ± 0.00023 S·m2/mol
same,molar conductivity,[2]; m1 = 0.001347,0.0098 ± 0.00022 S·m2/mol
same,molar conductivity,[2]; m1 = 0.001806,0.00954 ± 0.00021 S·m2/mol
same,molar conductivity,[2]; m1 = 0.00243,0.00927 ± 0.00021 S·m2/mol
same,molar conductivity,[2]; m1 = 0.002992,0.00899 ± 0.0002 S·m2/mol
same,molar conductivity,[2]; m1 = 0.003528,0.00879 ± 0.00019 S·m2/mol
same,molar conductivity,[2]; m1 = 0.004186,0.00854 ± 0.00018 S·m2/mol
same,molar conductivity,[2]; m1 = 0.004998,0.00831 ± 0.00018 S·m2/mol
same,molar conductivity,[2]; m1 = 0.005715,0.00809 ± 0.00017 S·m2/mol
same,molar conductivity,[2]; m1 = 0.006642,0.00777 ± 0.00017 S·m2/mol
same,molar conductivity,[2]; m1 = 0.007639,0.00753 ± 0.00016 S·m2/mol
same,molar conductivity,[2]; m1 = 0.008668,0.00731 ± 0.00015 S·m2/mol
CCCC[N+](CCCC)(CCCC)CCCC.[O-][Cl+3]([O-])([O-])[O-] [tetrabutylammonium perchlorate] + NC=O,molar conductivity,[2]; m1 = 0.000807,0.00312 ± 9e-05 S·m2/mol
same,molar conductivity,[2]; m1 = 0.001498,0.0029 ± 8e-05 S·m2/mol
same,molar conductivity,[2]; m1 = 0.002061,0.00278 ± 7.1e-05 S·m2/mol
same,molar conductivity,[2]; m1 = 0.002673,0.00264 ± 6.6e-05 S·m2/mol
same,molar conductivity,[2]; m1 = 0.003238,0.00255 ± 6.1e-05 S·m2/mol
same,molar conductivity,[2]; m1 = 0.003856,0.00244 ± 5.9e-05 S·m2/mol
same,molar conductivity,[2]; m1 = 0.004665,0.00231 ± 5.5e-05 S·m2/mol
same,molar conductivity,[2]; m1 = 0.005242,0.00224 ± 5.1e-05 S·m2/mol
same,molar conductivity,[2]; m1 = 0.006209,0.00212 ± 4.8e-05 S·m2/mol
same,molar conductivity,[2]; m1 = 0.007157,0.00202 ± 4.4e-05 S·m2/mol
same,molar conductivity,[2]; m1 = 0.00801,0.00196 ± 4.3e-05 S·m2/mol
same,molar conductivity,[2]; m1 = 0.008612,0.00189 ± 4.3e-05 S·m2/mol
CCCC[N+](CCCC)(CCCC)CCCC.F[B-](F)(F)F [tetrabutylammonium tetrafluoroborate] + CNC=O,molar conductivity,[2]; m1 = 0.000795,0.00352 ± 9.3e-05 S·m2/mol
same,molar conductivity,[2]; m1 = 0.001513,0.00331 ± 9e-05 S·m2/mol
same,molar conductivity,[2]; m1 = 0.002025,0.00314 ± 8.1e-05 S·m2/mol
same,molar conductivity,[2]; m1 = 0.002735,0.00299 ± 7.4e-05 S·m2/mol
same,molar conductivity,[2]; m1 = 0.003295,0.00286 ± 6.9e-05 S·m2/mol
same,molar conductivity,[2]; m1 = 0.003956,0.00275 ± 6.4e-05 S·m2/mol
same,molar conductivity,[2]; m1 = 0.004802,0.00262 ± 6.1e-05 S·m2/mol
same,molar conductivity,[2]; m1 = 0.005388,0.00253 ± 6.1e-05 S·m2/mol
same,molar conductivity,[2]; m1 = 0.006053,0.0024 ± 5.6e-05 S·m2/mol
same,molar conductivity,[2]; m1 = 0.007327,0.00223 ± 5.2e-05 S·m2/mol
same,molar conductivity,[2]; m1 = 0.007832,0.00216 ± 5e-05 S·m2/mol
same,molar conductivity,[2]; m1 = 0.008798,0.00204 ± 4.7e-05 S·m2/mol
CCCC[N+](CCCC)(CCCC)CCCC.F[B-](F)(F)F [tetrabutylammonium tetrafluoroborate] + C[N+](=O)[O-],molar conductivity,[2]; m1 = 0.000773,0.00833 ± 0.00022 S·m2/mol
same,molar conductivity,[2]; m1 = 0.001303,0.00794 ± 0.00021 S·m2/mol
same,molar conductivity,[2]; m1 = 0.001731,0.00765 ± 0.00019 S·m2/mol
same,molar conductivity,[2]; m1 = 0.002372,0.00735 ± 0.00017 S·m2/mol
same,molar conductivity,[2]; m1 = 0.002927,0.00709 ± 0.00016 S·m2/mol
same,molar conductivity,[2]; m1 = 0.003576,0.00684 ± 0.00016 S·m2/mol
same,molar conductivity,[2]; m1 = 0.004134,0.0066 ± 0.00015 S·m2/mol
same,molar conductivity,[2]; m1 = 0.004914,0.0064 ± 0.00014 S·m2/mol
same,molar conductivity,[2]; m1 = 0.005655,0.00617 ± 0.00014 S·m2/mol
same,molar conductivity,[2]; m1 = 0.006577,0.00594 ± 0.00013 S·m2/mol
same,molar conductivity,[2]; m1 = 0.007569,0.00568 ± 0.00012 S·m2/mol
same,molar conductivity,[2]; m1 = 0.008556,0.00543 ± 0.00012 S·m2/mol
CCCC[N+](CCCC)(CCCC)CCCC.F[B-](F)(F)F [tetrabutylammonium tetrafluoroborate] + NC=O,molar conductivity,[2]; m1 = 0.000829,0.00215 ± 5.8e-05 S·m2/mol
same,molar conductivity,[2]; m1 = 0.001452,0.00203 ± 5.6e-05 S·m2/mol
same,molar conductivity,[2]; m1 = 0.002025,0.00192 ± 5.1e-05 S·m2/mol
same,molar conductivity,[2]; m1 = 0.002632,0.00183 ± 4.7e-05 S·m2/mol
same,molar conductivity,[2]; m1 = 0.003181,0.00175 ± 4.5e-05 S·m2/mol
same,molar conductivity,[2]; m1 = 0.003782,0.00167 ± 4.1e-05 S·m2/mol
same,molar conductivity,[2]; m1 = 0.00457,0.00158 ± 3.9e-05 S·m2/mol
same,molar conductivity,[2]; m1 = 0.005291,0.0015 ± 3.6e-05 S·m2/mol
same,molar conductivity,[2]; m1 = 0.006131,0.00143 ± 3.4e-05 S·m2/mol
same,molar conductivity,[2]; m1 = 0.007056,0.00134 ± 3.4e-05 S·m2/mol
same,molar conductivity,[2]; m1 = 0.007921,0.00125 ± 3.3e-05 S·m2/mol
same,molar conductivity,[2]; m1 = 0.008482,0.00119 ± 3.2e-05 S·m2/mol
